Where “and” joins values, the source holds several entries; their conditions need not be identical. Identical values can stand only once. Like-named read-outs stand apart in the source and are kept apart here.
What was measured:
Assay in all cases: GloSensor cAMP assay, antagonism of PGE2-induced cAMP
Format in all cases: cell-based
EP2 M116A = biological target: T1, EP2 M116A (Homo sapiens, UniProt P43116, M116A); settings: for cAMP activity (∆pIC50 from EP2 WT): TG6-129, M116A
T1 construct: The full-length EP2 or EP4 was cloned into the pcDNA3.1 vector; FLAG (N); expressed in transfected cells; host or cells: AD293 cells
Description: (§1) The full-length EP2 or EP4 was cloned into the pcDNA3.1 vector (Invitrogen), incorporating an N-terminal FLAG tag. AD293 cells were seeded in six-well plates containing DMEM supplemented with 10% dialyzed FBS 1 day prior to transfection. Following overnight growth, cells were transfected with a 1:1 ratio of receptor construct and GloSensor22F cAMP biosensor (Promega) plasmids.
(§2) Twenty-four hours post-transfection, the cells were transferred to CO2-independent media containing 2% GloSensor cAMP Reagent (Promega) and distributed into 384-well assay plates at a density of 4000 cells per well in 10 μL. […] The plates were then incubated at 37 °C for an additional hour before luminescence measurements were taken using an EnVision plate reader.
(§3) Data analysis was performed using GraphPad Prism software v8.0.1. A nonlinear regression analysis, employing a sigmoidal dose–response model, was conducted to determine the Emax values and half-maximum inhibitory concentrations (IC50) for each compound tested.

EP2 S305A = biological target: T2, EP2 S305A (Homo sapiens, UniProt P43116, S305A); settings: for cAMP activity (∆pIC50 from EP2 WT): TG6-129, S305A
T2 construct: The full-length EP2 or EP4 was cloned into the pcDNA3.1 vector; FLAG (N); expressed in transfected cells; host or cells: AD293 cells
Description: as §1, §2, §3

EP2 S308A = biological target: T3, EP2 S308A (Homo sapiens, UniProt P43116, S308A); settings: for cAMP activity (∆pIC50 from EP2 WT): TG6-129, S308A
T3 construct: The full-length EP2 or EP4 was cloned into the pcDNA3.1 vector; FLAG (N); expressed in transfected cells; host or cells: AD293 cells
Description: as §1, §2, §3

EP2 S86A = biological target: T4, EP2 S86A (Homo sapiens, UniProt P43116, S86A); settings: for cAMP activity (∆pIC50 from EP2 WT): TG6-129, S86A
T4 construct: The full-length EP2 or EP4 was cloned into the pcDNA3.1 vector; FLAG (N); expressed in transfected cells; host or cells: AD293 cells
Description: as §1, §2, §3

EP2 T82A = biological target: T5, EP2 T82A (Homo sapiens, UniProt P43116, T82A); settings: for cAMP activity (∆pIC50 from EP2 WT): TG6-129, T82A
T5 construct: The full-length EP2 or EP4 was cloned into the pcDNA3.1 vector; FLAG (N); expressed in transfected cells; host or cells: AD293 cells
Description: as §1, §2, §3

EP2 W186A = biological target: T6, EP2 W186A (Homo sapiens, UniProt P43116, W186A)
T6 construct: The full-length EP2 or EP4 was cloned into the pcDNA3.1 vector; FLAG (N); expressed in transfected cells; host or cells: AD293 cells
Description: as §1, §2, §3

EP4 S319A = biological target: T7, EP4 S319A (Homo sapiens, UniProt P35408, S319A); settings: for cAMP activity (∆pIC50 from EP4 WT): TG6-129, S319A
T7 construct: The full-length EP2 or EP4 was cloned into the pcDNA3.1 vector (Invitrogen), incorporating an N-terminal FLAG tag; expressed in transfected cells; host or cells: AD293
Description: as §1, §2, §3

EP4 V320A = biological target: T8, EP4 V320A (Homo sapiens, UniProt P35408, V320A)
T8 construct: The full-length EP2 or EP4 was cloned into the pcDNA3.1 vector (Invitrogen), incorporating an N-terminal FLAG tag; expressed in transfected cells; host or cells: AD293
Description: as §1, §2, §3

[1] = 1 h, TG6-129 log([M]) -6, read-out: % cAMP activity (normalized to WT)
[2] = 1 h, TG6-129 log([M]) -7, read-out: % cAMP activity (normalized to WT)
[3] = 1 h, TG6-129 log([M]) -9, read-out: % cAMP activity (normalized to WT)
[4] = 1 h, TG6-129 log([M]) -11, read-out: % cAMP activity (normalized to WT)
[5] = 1 h, TG6-129 log([M]) -12, read-out: % cAMP activity (normalized to WT)
[6] = 1 h, TG6-129 log([M]) -10, read-out: % cAMP activity (normalized to WT)
[7] = 1 h, TG6-129 log([M]) -8, read-out: % cAMP activity (normalized to WT)
[8] = 1 h, TG6-129 log([M]) -4.70, read-out: % cAMP activity (normalized to WT)
[9] = 1 h, TG6-129 log([M]) -5.40, read-out: % cAMP activity (normalized to WT)
[10] = 1 h, TG6-129 log([M]) -6.10, read-out: % cAMP activity (normalized to WT)
[11] = 1 h, TG6-129 log([M]) -6.80, read-out: % cAMP activity (normalized to WT)

T6 sequence (P43116 whole entry W186A): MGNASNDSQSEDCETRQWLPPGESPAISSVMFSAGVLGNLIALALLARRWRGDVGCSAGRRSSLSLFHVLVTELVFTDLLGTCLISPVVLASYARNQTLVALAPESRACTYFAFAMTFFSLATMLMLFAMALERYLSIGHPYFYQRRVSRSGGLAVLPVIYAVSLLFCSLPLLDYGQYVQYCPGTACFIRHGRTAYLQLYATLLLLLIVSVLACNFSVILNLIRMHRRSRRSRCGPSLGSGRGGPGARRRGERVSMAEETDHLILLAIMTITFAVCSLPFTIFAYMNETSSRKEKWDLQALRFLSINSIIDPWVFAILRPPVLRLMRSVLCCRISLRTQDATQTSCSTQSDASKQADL
T1 sequence (P43116 whole entry M116A): as the sequence (P43116 whole entry W186A) above, with M116A, A186W counted along it
T8 sequence (P35408 whole entry V320A): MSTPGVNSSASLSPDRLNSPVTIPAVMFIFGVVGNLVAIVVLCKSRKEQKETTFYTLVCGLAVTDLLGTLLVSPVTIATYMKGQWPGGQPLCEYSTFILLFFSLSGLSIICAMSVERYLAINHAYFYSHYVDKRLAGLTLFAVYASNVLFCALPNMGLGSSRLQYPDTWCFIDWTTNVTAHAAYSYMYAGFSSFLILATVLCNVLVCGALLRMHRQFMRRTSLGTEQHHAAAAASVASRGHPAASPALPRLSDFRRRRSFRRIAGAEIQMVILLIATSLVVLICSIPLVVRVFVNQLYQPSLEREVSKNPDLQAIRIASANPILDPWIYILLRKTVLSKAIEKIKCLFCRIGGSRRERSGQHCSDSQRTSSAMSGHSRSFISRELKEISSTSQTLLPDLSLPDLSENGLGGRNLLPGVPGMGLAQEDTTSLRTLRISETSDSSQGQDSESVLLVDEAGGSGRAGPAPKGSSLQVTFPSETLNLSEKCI
T2 sequence (P43116 whole entry S305A): as the sequence (P43116 whole entry W186A) above, with A186W, S305A counted along it
T4 sequence (P43116 whole entry S86A): as the sequence (P43116 whole entry W186A) above, with S86A, A186W counted along it
T5 sequence (P43116 whole entry T82A): as the sequence (P43116 whole entry W186A) above, with T82A, A186W counted along it
T7 sequence (P35408 whole entry S319A): as the sequence (P35408 whole entry V320A) above, with S319A, A320V counted along it
T3 sequence (P43116 whole entry S308A): as the sequence (P43116 whole entry W186A) above, with A186W, S308A counted along it

IC50 (EP2 M116A): 513 nM
cAMP activity (∆pIC50 from EP2 WT) (EP2 M116A; Mean): -0.947
cAMP activity (∆pIC50 from EP2 WT) (EP2 M116A; single experiments 1st-3rd): -0.910 and -0.955 and -0.975
IC50 (EP2 S305A): 28.8 nM
remaining activity at 1 µM (EP2 S305A; [1]): 9.02%
remaining activity at 0.1 µM (EP2 S305A; [2]): 12.5%
remaining activity at 0.001 µM (EP2 S305A; [3]): 44.8%
remaining activity at 10 pM (EP2 S305A; [4]): 67.8%
remaining activity at 1 pM (EP2 S305A; [5]): 54.8%
cAMP activity (∆pIC50 from EP2 WT) (EP2 S305A; Mean): 0.475
cAMP activity (∆pIC50 from EP2 WT) (EP2 S305A; single experiments 1st-3rd): 0.478 and 0.360 and 0.586
IC50 (EP2 S308A): 209 nM
remaining activity at 0.1 µM (EP2 S308A; [2]): 80.3%
remaining activity at 0.0001 µM (EP2 S308A; [6]): 108%
remaining activity at 10 pM (EP2 S308A; [4]): 110%
cAMP activity (∆pIC50 from EP2 WT) (EP2 S308A; Mean): -0.534
cAMP activity (∆pIC50 from EP2 WT) (EP2 S308A; single experiments 1st-3rd): -0.496 and -0.568 and -0.537
IC50 (EP2 S86A): 339 nM
remaining activity at 0.01 µM (EP2 S86A; [7]): 39.3%
remaining activity at 0.0001 µM (EP2 S86A; [6]): 51.4%
remaining activity at 1 pM (EP2 S86A; [5]): 49.3%
cAMP activity (∆pIC50 from EP2 WT) (EP2 S86A; Mean): -0.714
cAMP activity (∆pIC50 from EP2 WT) (EP2 S86A; single experiments 1st-3rd): -0.638 and -0.681 and -0.823
IC50 (EP2 T82A): 74.1 nM
remaining activity at 0.01 µM (EP2 T82A; [7]): 28.8%
remaining activity at 0.001 µM (EP2 T82A; [3]): 38.9%
remaining activity at 10 pM (EP2 T82A; [4]): 40.1%
remaining activity at 1 pM (EP2 T82A; [5]): 33.8%
cAMP activity (∆pIC50 from EP2 WT) (EP2 T82A; Mean): -0.177
cAMP activity (∆pIC50 from EP2 WT) (EP2 T82A; single experiments 1st-3rd): -0.228 and -0.186 and -0.118
IC50 (EP2 W186A): 2000 nM
remaining activity at 1 µM (EP2 W186A; [1]): 12.3%
remaining activity at 0.1 µM (EP2 W186A; [2]): 14.9%
remaining activity at 0.01 µM (EP2 W186A; [7]): 13.9%
remaining activity at 0.001 µM (EP2 W186A; [3]): 12.1%
remaining activity at 0.0001 µM (EP2 W186A; [6]): 12.9%
remaining activity at 10 pM (EP2 W186A; [4]): 15.2%
remaining activity at 1 pM (EP2 W186A; [5]): 12.4%
cAMP activity (∆pIC50 from EP2 WT) (EP2 W186A; TG6-129, W186A, Mean): -1.790
IC50 (EP4 S319A): 20000 nM
remaining activity at 100 µM (EP4 S319A; 1 h, TG6-129 log([M]) -4.00, read-out: % cAMP activity (normalized to WT)): 15.3%
remaining activity at […] (EP4 S319A; [8]): 26.4%
remaining activity at […] (EP4 S319A; [9]): 52.2%
remaining activity at […] (EP4 S319A; [10]): 50.8%
remaining activity at 0.1585 µM (EP4 S319A; [11]): 53.5%
remaining activity at 0.03236 µM (EP4 S319A; 1 h, TG6-129 log([M]) -7.49, read-out: % cAMP activity (normalized to WT)): 57.1%
remaining activity at 0.006457 µM (EP4 S319A; 1 h, TG6-129 log([M]) -8.19, read-out: % cAMP activity (normalized to WT)): 56.3%
remaining activity at 0.001288 µM (EP4 S319A; 1 h, TG6-129 log([M]) -8.89, read-out: % cAMP activity (normalized to WT)): 49.4%
cAMP activity (∆pIC50 from EP4 WT) (EP4 S319A; Mean): -0.299
cAMP activity (∆pIC50 from EP4 WT) (EP4 S319A; single experiments 1st-3rd): -0.429 and -0.317 and -0.151
IC50 (EP4 V320A): 13500 nM
remaining activity at […] (EP4 V320A; [8]): 26.1%
remaining activity at […] (EP4 V320A; [9]): 66.6%
remaining activity at […] (EP4 V320A; [10]): 66.9%
remaining activity at 0.1585 µM (EP4 V320A; [11]): 68%
SMILES: CCc1nnc(NS(=O)(=O)c2ccc(NC(=S)NC(=O)/C=C/c3ccc(F)cc3)cc2)s1 [TG6-129]
